According to patent publication US20040198821A1, “Reduction of hair growth” (priority 2002, published 2004):
Values belong to the molecule of their own block, whether it stands above or below them.

Legend:
[1] = test system: Carnitine palmitoyltransferase I (CPT I); assay: Assay of carnitine palmitoyl transferase-I (CPT-I), Method-I; format: biochemical; settings: inhibitor 5 mM, hamster flank organ hair follicle fraction
Description: Assay of Carnitine Palmitoyl Transferase-I (CPT-I)
Two different enzyme assays were used to quantify the activity of CPT-I in hair follicles:
Hair follicle rich fraction from hamster flank organs are homogenized in Buffer A (200 mM mannitol, 10 mM sucrose, 5 mM MOPS pH 7.4). The homogenate is centrifuged at 2000 rpm for 10 minutes. The supernatant is removed and centrifuged at 7000 rpm for 30 minutes. The pellet is resuspended in Buffer B (20 mM Tris-HCl, pH 7.4), 400 mM sucrose, 80 mM KCl, 2 mM EDTA, 2.6 mg/ml fatty acid free BSA). 30 μl of the resuspended pellet is added to 35 μl of DMSO or one of the inhibitors diluted in DMSO so that the final concentration is 5 mM. After a 15 min preincubation, the following are added; 35 μl of 1.7 mM palmitoyl Co-A (34% water and 66% Buffer B), 10 μl of 5 mM L-carnitine (in buffer B with 0.5 μCi ^3H-carnitine). The reaction is then placed in a 37° C. water bath for 30 minutes. At the end of 30 minutes the reaction is stopped by the addition of 150 μl cold 1N HCl. This is followed by the addition of 250μl water to each sample. Butanol (500 μl) is then added to each sample and the samples are centrifuged for 2 minutes at 10,000×g. 300 μl of the butanol layer is transferred to a new centrifuge tube and 250 μl of water is added. 200 μl of the organic phase is added to a scintillation vial containing 12 ml of scintillation cocktail. The radioactivity is determined using a scintillation counter.

[2] = test system: hamster flank organ hair growth (hair mass); assay: Golden Syrian hamster assay (hair mass assay); format: in vivo; settings: for % Inhibition of hamster hair mass / Treated (mg) hair mass: three weeks
Description: Golden Syrian Hamster Assay
Male intact Golden Syrian hamsters are considered acceptable models for human beard hair growth in that they display oval shaped flank organs, one on each side, each about 8 mm. in major diameter. These organs produce fine light colored hair typical of the animal pelage found on the body. In response to androgens the flank organs produce dark coarse hair similar to male human beard hair. To evaluate the effectiveness of a composition in reducing hair growth, the flank organs of each of a group of hamsters are depilated by applying a thioglycolate based chemical depilatory (Surgex) and/or shaved. To one organ of each animal 10 μl. of vehicle alone once a day is applied, while to the other organ of each animal an equal amount of vehicle containing the compound under evaluation is applied. After three weeks of topical applications (one application per day for five days a week), the flank organs are shaved and the amount of recovered hair (hair mass) from each is weighed. Percent-reduction of hair growth is calculated by subtracting the hair mass (mg) value of the test compound treated side from the hair mass value of the vehicle treated side; the delta value obtained is then divided by the hair mass value of the vehicle treated side, and the resultant number is multiplied by 100.
The above-described assay will be referred to herein as the “Golden Syrian hamster” assay or “hair mass” assay. Preferred compositions provide a reduction in hair growth of at least about 15% and more preferably at least about 35%, when tested in the Golden Syrian hamster assay.

human hair follicles = assay: Human hair follicle growth assay; format: cell-based
Description: Human Hair Follicle Growth Assay
Tissue source—Human skin was obtained from a plastic surgeon as a by-product of face-lift procedures. Immediately after removal, the skin was placed in Williams E medium containing antibiotics and refrigerated. The Williams E medium is a commercially obtained medium which has been formulated with essential nutrients for maintaining viability of tissues or cells such as of hair follicle in an in-vitro environment.
Hair Follicle Isolation and Culture—Human hair follicles in growth phase (anagen) were isolated from face-lift tissue under a dissecting scope using a scalpel and watchmakers forceps. The skin was sliced into thin strips exposing 2-3 rows of follicles that could readily be dissected. Follicles were placed into 0.5 ml Williams E medium supplemented with 2 mM L-glutamine, 10 μg/ml insulin, 100 ng/ml hydrocortisone, 100 units penicillin, 0.1 mg/ml streptomycin and 0.25 μg/ml amphotericin B. The follicles were incubated in 24 well plates (1 follicle/well) at 37° C. in an atmosphere of 5% CO2 and 95% air. Hair follicles were video recorded in the 24-well plates under the dissecting scope under a power of 10×. Typically, hair follicle lengths were measured on day 0 (day follicles were placed in culture) and again on day 7. When testing compounds, the compound was included in the culture medium from time 0 and remained in the medium throughout the course of the experiment. The length of hair follicles was assessed using an image analysis software system (Jasc Image Robot).

3-ketoacyl-CoA thiolase = assay: Assay of 3-ketoacyl-CoA thiolase; format: biochemical, hamster; settings: inhibitor 0.5 mM, mitochondria preincubated 5 min
Description: Assay of 3-Ketoacyl-CoA Thiolase:
Aliquots of the mitochondrial suspension (50 μl) were rapidly frozen in dry ice and stored at −80° C. until enzyme activities were assayed as described below. To insure the complete disruption of mitochondria, Triton X-100 (0.06%) was added to all assay mixtures. The activity of thiolase was determined by spectrophotometrically following the disappearance of the Mg^2+-enolate complex at 303 nm. The enzyme assay was performed at 25° C. The reaction mixture contained 0.1 M Tris-HCl (pH 8.2), 25 mM MgCl2, 30 mM KCl, 0.06% Triton X-100, bovine serum albumin (0.13 mg/ml), 70 μM CoA and 33 μM acetoacetyl-CoA. Molar extinction coefficient of […] was used to calculate the rates determined with acetoacetyl-CoA.

[3] = test system: Carnitine palmitoyltransferase I (CPT I); assay: Assay of carnitine palmitoyl transferase-I (CPT-I), Method II (isolated mitochondrial fraction); format: biochemical, hamster; settings: inhibitor 1 mM
Description: The enzyme activity of carnitine palmitoyl transferase-I (CPT-I) was also determined in the isolated mitochondrial fraction. Isolation of mitochondria from the hair follicle rich fraction of flank organs was accomplished by conventional differential centriftigation in 0.25 M sucrose, 10 mM Tris-HCl, pH 7.4 and 1 mM EDTA after tissues were homogenized by polytron homogenizer and Dounce tissue grinder. The pellet obtained at 7000 g was washed two times and finally suspended at 40-80 mg/ml. Carnitine palmitoyltransferase was measured as the rate of conversion of palmitoyl-CoA and [^3H]CH3-L-carnitine into palmitoyl-[^3H]CH3-1-carnitine. The incubation mixture initially contained 12.5 μmol of Tris-HCl (pH 7.2), 15 μmol of KCl, 3.1 μmol of KCN, 6.2 μmol of glutathione, 15 nmol of CoA, […], 2 μmol of ATP (pH 6.8) in volume of 0.425 ml. To this mixture 50 μl of mitochondria were added, followed by preincubation at 37° C. for 10 minutes in the presence or absence of the enzyme inhibitor methyl palmoxirate (dissolved in DMSO). After preincubation, the enzyme reaction was initiated by the addition of 25 μl of 2 mM palmitoyl-CoA and 25 μl of 4 mM [^3H]CH3-L-carnitine. The reaction was stopped after 30 minutes with 1 ml 1N HCl and palmitoyl-[^3H]CH3-L-carnitine was extracted into n-butanol. The radioactivity was determined using scintillation spectrometry.

[4] = 1 mM in culture medium, day 0 to day 7

% inhibition of CPT I [1]: 90% | pmol product /mg protein (CPT I activity) [1]: 0.07 pmol product /mg protein
Compound: CCCCNC(=O)NS(=O)(=O)c1ccc(C)cc1 [tolbutamide]

% inhibition of CPT I [1]: 100% | pmol product /mg protein (CPT I activity) [1]: 0.00 pmol product /mg protein
Compound: COc1ccc(Cl)cc1C(=O)NCCc1ccc(S(=O)(=O)NC(=O)NC2CCCCC2)cc1 [glynbenclamide]
% Inhibition of hamster hair mass ([2]; topical dose 10.0%, vehicle D): 32 ± 8% | Treated (mg) hair mass ([2]; topical dose 10.0%, vehicle D): 1.40 ± 0.32 mg

% inhibition of 3-ketoacyl-CoA thiolase (3-ketoacyl-CoA thiolase): 85.2% | nmol product/mg protein (3-ketoacyl-CoA thiolase activity) (3-ketoacyl-CoA thiolase): 0.128 nmol product/mg protein
Compound: O=C(O)/C=C/CBr [4-bromocrotonic acid]
% Inhibition of hamster hair mass ([2]; topical dose 3.0%, vehicle B): 37 ± 14% | Treated (mg) hair mass ([2]; topical dose 3.0%, vehicle B): 1.25 ± 0.37 mg | Hair follicle length increase (mm) (human hair follicles; 0.03 mM in culture medium, day 0 to day 7): 0.06 ± 0.06 mm | inhibition at 30 µM (human hair follicles; Homo sapiens, 0.03 mM in culture medium, day 0 to day 7): 95 ± 5%

Compound: C=CCCC(=O)O [4-pentenoic acid]
% Inhibition of hamster hair mass ([2]; topical dose 10.0%, vehicle A): 46 ± 8% | Treated (mg) hair mass ([2]; topical dose 10.0%, vehicle A): 1.10 ± 0.12 mg

Compound: CCCCCCCCCCCCCCC(Br)C(=O)O (centres unmarked) [2-bromopalmitic acid]
% inhibition of CPT I [1]: 91% | pmol product /mg protein (CPT I activity) [1]: 0.07 pmol product /mg protein

Compound: CCCCCCCCCC(=O)OC(CC(=O)O)C[N+](C)(C)C.[Cl-] (racemic) [DL-decanoylcarnitine chloride]
% Inhibition of hamster hair mass ([2]; topical dose 10.0%, vehicle B): 58 ± 5% | Treated (mg) hair mass ([2]; topical dose 10.0%, vehicle B): 0.94 ± 0.12 mg

% inhibition of CPT I [1]: 86% | pmol product /mg protein (CPT I activity) [1]: 0.10 pmol product /mg protein
Compound: C1CCC(C(CC2CCCCN2)C2CCCCC2)CC1 (centres unmarked) [perhexiline]
% Inhibition of hamster hair mass ([2]; topical dose 2.5%, vehicle B): 23 ± 25% | Treated (mg) hair mass ([2]; topical dose 2.5%, vehicle B): 2.28 ± 0.77 mg

% inhibition of CPT I [1]: 22% | pmol product /mg protein (CPT I activity) [1]: 0.59 pmol product /mg protein
Compound: CC(C)(COP(=O)(O)OP(=O)(O)OC[C@H]1O[C@@H](n2cnc3c(N)ncnc32)[C@H](O)[C@@H]1OP(=O)(O)O)[C@@H](O)C(=O)NCCC(=O)NCCSC(=O)CC(=O)O [malonyl CoA]

Compound: CCCCc1oc2ccccc2c1C(=O)c1cc(I)c(OCCN(CC)CC)c(I)c1 [amiodarone]
% Inhibition of hamster hair mass ([2]; topical dose 7.5%, vehicle A): 44 ± 28% | Treated (mg) hair mass ([2]; topical dose 7.5%, vehicle A): 1.62 ± 0.9 mg

Compound: CCCCCCCCCCCCCCCC(=O)OC(CC(=O)[O-])C[N+](C)(C)C (stereo not drawn) [palmitoyl DL carnitine]
% Inhibition of hamster hair mass ([2]; topical dose 10.0%, vehicle A): 73 ± 15% | Treated (mg) hair mass ([2]; topical dose 10.0%, vehicle A): 0.29 ± 0.1 mg

Compound: CCCCCCCCC1=C(CCCCCCCC(=O)OC)C1 [methyl sterculate]
reduction of hair growth in vivo (in words) ([2]; text summary of Table VIII): can reduce hair growth both in vivo and in vitro | % Inhibition of hamster hair mass ([2]; topical dose 2.5%, vehicle E): 45.1 ± 6.8% | Treated (mg) hair mass ([2]; topical dose 2.5%, vehicle E): 1.4 ± 0.2 mg | % Inhibition of human hair follicle growth (human hair follicles; [4]): 59.3 ± 0.2% | Hair follicle length increase (mm) (human hair follicles; [4]): 0.59 ± 0.29 mm | reduction of hair growth in vitro (in words) (human hair follicles; text summary of Table IX): can reduce hair growth both in vivo and in vitro

Compound: C/C=C/C/C=C/CCC(=O)[C@H]1O[C@H]1C(N)=O [cerulenin]
Hair follicle length increase (mm) (human hair follicles; 10 μM in culture medium, day 0 to day 7): 0.06 ± 0.05 mm | inhibition at 10 µM (human hair follicles; Homo sapiens, 10 μM in culture medium, day 0 to day 7): 93.7 ± 5.6% | inhibition of human hair follicle growth in vitro (in words) (human hair follicles; text summary of Table VII): can inhibit human hair follicle growth in vitro with marked efficacy

Compound: CCCCCCCCCCCCCCC1(C(=O)OC)CO1 (centres unmarked) [methyl palmoxirate, methyl-2-tetradecylglycidate]
% Inhibition of hamster hair mass ([2]; topical dose 2.0%, vehicle B): 66 ± 4% | Treated (mg) hair mass ([2]; topical dose 2.0%, vehicle B): 0.56 ± 0.12 mg | Hair follicle length increase (mm) (human hair follicles; 0.1 mM in culture medium, day 0 to day 7): 0.54 ± 0.3 mm | inhibition at 100 µM (human hair follicles; Homo sapiens, 0.1 mM in culture medium, day 0 to day 7): 57 ± 24%

Compound: CC(C)(C)c1ccc(C(=O)O)cc1 [4-tert-butylbenzoic acid]
% Inhibition of hamster hair mass ([2]; topical dose 10.0%, vehicle C): 46 ± 8% | Treated (mg) hair mass ([2]; topical dose 10.0%, vehicle C): 1.10 ± 0.12 mg

% inhibition of CPT I [3]: 44% | pmol product /mg protein (CPT I activity) [3]: 0.64 pmol product/mg protein
Compound: N[C@H](C(=O)O)c1ccc(O)cc1 [oxfenicine]

Compound: CCCC(CCC)C(=O)O [2-propylpentanoic acid]
% Inhibition of hamster hair mass ([2]; topical dose 20.0%, vehicle A): 67 ± 3% | Treated (mg) hair mass ([2]; topical dose 20.0%, vehicle A): 2.68 ± 0.20 mg
